These results are taken from patent publication US20090306625A1, “TREATMENT SYSTEMS AND METHODS FOR RENAL-RELATED DISEASES” (AngioDynamics, Inc., priority 2007, published 2009).

Data set [1] deals with patients with moderate to severe underlying renal dysfunction. Nature of the data set: Targeted renal therapy (intra-renal infusion) with fenoldopam mesylate in patients receiving a nephrotoxic radio-contrast agent. In kind it is in vivo, human. Particulars: TRT (intra-renal) delivery. An excerpt: TRT can be applied to patients with various agents in many clinical settings to mitigate acute kidney injury. For example, TRT can be applied with fenoldopam mesylate, a dopamine DI-like agonist vasodilator (CORLOPAM® brand of Fenoldopam Mesylate Injection). […] The increase in GFR can be seen in the setting of an insult to the kidneys in the form of a nephrotoxic radio-contrast agent.

In data set [2] the test system is septic patients. Particulars: IV infusion 0.09 mcg/kg/min, average of one week or more, ICU; cited from earlier work.

Counter-ions that a name gives are not always drawn.

For `Oc1ccc(C2CNCCc3c2cc(O)c(O)c3Cl)cc1` (stereo not drawn) [fenoldopam mesylate], the “effect on blood pressure” value in data set [1] is given as “no significant effect”. In addition, the “increase in glomerular filtration rate (GFR) above baseline” value in data set [1] (nephrotoxic radio-contrast insult) was “approximately 25%”. Besides, in data set [2], the “outcome in preventing kidney failure” value is “improved outcomes in preventing kidney failure”.
